Reference: patent US12569534B2, “Therapeutic nanoparticles by coacervate complexation and their use for treating bacteria” (priority 2018, dated 2026)

Assays:
[1] = Maximum tolerated dose, intravenous; conditions: BALB/c mice, tail vein, Example 1 study
Excerpt: See e,g., Li et al, International Journal of Pharmaceutics, 2016, 515, 20-29; and Barnett et al., British Journal of Pharmacology and Chemotherapy, 1964, 23, 552-574. The highest dosage at which all examined subjects remained alive was defined as the MTD.
For this study, mice (8 weeks, Balb/c mice) were obtained from Bio-LASCO Taiwan Co., Ltd (Taipei, Taiwan). […] The highest dosage at which all examined subjects remained alive was defined as the MTD.

K. pneumoniae [2] = test: MIC/MBC broth microdilution, Example 2; assay type: cell-based, Klebsiella pneumoniae; conditions: Example 2 CS NPs
Experimental: (§1) Reference bacterial stains were purchased from ATCC. Clinical isolates of carbapenem-resistant bacteria were obtained from National Health Research Institutes (NHRI) and Tri-Service General Hospital (TSGH). MIC is defined as the lowest concentration of antibiotics required to inhibit the growth of bacteria. MBC is defined as the lowest concentration of antibiotics required to eradicate microorganisms. The MICs of CS and the CS NPs were determined using a broth microdilution method. Bacterial suspensions were adjusted to a turbidity of McFarland 0.5±0.05 and cultured overnight with different concentrations of CS or CS NPs. A control group without antimicrobial treatment was prepared as a reference. Following overnight incubation, solution turbidity was determined by visual inspection. Culture wells with no observable turbidity were further sub-cultured for MBC evaluation. Solutions from the clear wells were deposited onto an agar plate and cultured overnight to determine the MBCs.
(§2) To evaluate the antibacterial efficacy of the CS NPs of this study, their MIC and MBC were assessed against 5 reference bacterial strains and 20 clinical isolates of carbapenem-resistant A. baumannii, E. coli, K. pneumoniae, and P. aeruginosa according to the procedures set forth in EXAMPLE 1. Reference bacterial stains were purchased from ATCC. Carbapenem-resistant clinical isolated were obtained from NHRI.

E. Coli ATCC 25922 = test: MIC and MBC of different treatments, Example 3; assay type: cell-based
Experimental: as §1

K. pneumoniae [3] = test: MIC/MBC broth microdilution, Example 1; assay type: cell-based, Klebsiella pneumoniae; conditions: Example 1 CS NPs
Experimental: (§3) To evaluate antibacterial efficacy of the CS NPs, their minimum inhibitory concentration (MIC) and minimum bactericidal concentration (MBC) were assessed against 5 reference bacterial strains and 39 clinical isolates of carbapenem-resistant A. baumannii, P. aeruginosa, E. coli, and K. pneumoniae.
as §1

P. aeruginosa = test: MIC/MBC broth microdilution, Example 2; assay type: cell-based, Pseudomonas aeruginosa; conditions: Example 2 CS NPs
Experimental: as §1, §2

[4] = test system: K. pneumoniae NHRI 1 isolate; test: Mouse survival model of K. pneumoniae infection; assay type: in vivo; conditions: neutropenic Balb/c mice, lethal i.p. infection; 5 mg/kg CS or 20 mg/kg CS NPs (50% MTD) 5 hours post-infection
Experimental: 3 days and 1 day before infection, the mice were injected intraperitoneally with 150 and 100 mg/kg of cyclophosphamide, respectively, to induce neutropenia. K. pneumoniae NHRI 1 isolate was grown in 60 mL Mueller Hinton broth at 150 rpm (orbital shaker, Yihder TS-580) for 2.5 hours at 37° C. to reach the mid-logarithmic phase. The bacteria were then collected at 10,000×g for 10 minutes at 4° C. The bacterial pellet was resuspended in PBS. To induce K. pneumoniae intraperitoneal infection with a lethal bacterial dose, mice were infected with 1.5×10^8 CFU/mouse in […] via intraperitoneal injection. 5 hours post-infection, the infected mice were treated with 5 mg/kg CS (50% MTD), 20 mg/kg CS NPs (50% MTD), or PBS as a control.

A. baumannii = test: MIC/MBC broth microdilution, Example 1; assay type: cell-based, Acinetobacter baumannii; conditions: Example 1 CS NPs
Experimental: as §3, §1

[5] = clinical carbapenem-resistant isolate K. pneumoniae NHRI 1
[6] = clinical carbapenem-resistant isolate K. pneumoniae NHRI 2
[7] = clinical carbapenem-resistant isolate K. pneumoniae NHRI 3
[8] = clinical carbapenem-resistant isolate K. pneumoniae NHRI 4
[9] = clinical carbapenem-resistant isolate K. pneumoniae NHRI 5
[10] = clinical carbapenem-resistant K. pneumoniae NHRI 1
[11] = clinical carbapenem-resistant K. pneumoniae NHRI 2
[12] = clinical carbapenem-resistant K. pneumoniae NHRI 4
[13] = clinical carbapenem-resistant K. pneumoniae NHRI 5
[14] = clinical carbapenem-resistant K. pneumoniae TSGH 1
[15] = clinical carbapenem-resistant K. pneumoniae TSGH 3
[16] = clinical carbapenem-resistant K. pneumoniae TSGH 5
[17] = clinical carbapenem-resistant K. pneumoniae TSGH 7
[18] = clinical carbapenem-resistant K. pneumoniae TSGH 9
[19] = clinical carbapenem-resistant K. pneumoniae TSGH 11
[20] = clinical carbapenem-resistant K. pneumoniae TSGH 13
[21] = clinical carbapenem-resistant K. pneumoniae TSGH 15
[22] = clinical carbapenem-resistant K. pneumoniae TSGH 16
[23] = clinical carbapenem-resistant K. pneumoniae TSGH 17
[24] = clinical carbapenem-resistant K. pneumoniae TSGH 18
[25] = clinical carbapenem-resistant K. pneumoniae TSGH 19
[26] = clinical carbapenem-resistant isolate P. aeruginosa NHRI 1
[27] = clinical carbapenem-resistant isolate P. aeruginosa NHRI 2
[28] = clinical carbapenem-resistant isolate P. aeruginosa NHRI 3
[29] = clinical carbapenem-resistant isolate P. aeruginosa NHRI 4
[30] = clinical carbapenem-resistant isolate P. aeruginosa NHRI 5
[31] = reference strain P. aeruginosa 27853
[32] = clinical carbapenem-resistant A. baumannii NHRI 1
[33] = clinical carbapenem-resistant A. baumannii NHRI 2
[34] = clinical carbapenem-resistant A. baumannii NHRI 3
[35] = clinical carbapenem-resistant A. baumannii NHRI 4
[36] = clinical carbapenem-resistant A. baumannii NHRI 5
[37] = reference strain A. baumannii 15151
[38] = reference strain A. baumannii 17978
[39] = reference strain A. baumannii 19606

In the case of colistin [CS], the MTD [1] is reported as 10 mg/kg, the MBC (K. pneumoniae [2]; [5]) is reported as 4 µg/mL and the MIC (K. pneumoniae [2]; [5]) is reported as 1 µg/mL. For the same substance, the MBC (K. pneumoniae [2]; [6]) was 1 µg/mL, the MIC (K. pneumoniae [2]; [6]) was 1 µg/mL and the MBC (K. pneumoniae [2]; [7]) was 2 µg/mL. For the same substance, the MIC (K. pneumoniae [2]; [7]) was 1 µg/mL, the MBC (K. pneumoniae [2]; [8]) was 2 µg/mL and the MIC (K. pneumoniae [2]; [8]) was 2 µg/mL. It also gave an MBC (K. pneumoniae [2]; [9]) of 4 µg/mL, an MIC (K. pneumoniae [2]; [9]) of 1 µg/mL and an MBC (E. Coli ATCC 25922) of 4 µg/mL. For the same substance, the MIC (E. Coli ATCC 25922) was 2 µg/mL, the MBC (K. pneumoniae [3]; [10]) was 4 µg/mL and the MIC (K. pneumoniae [3]; [10]) was 2 µg/mL. For the same substance, the MBC (K. pneumoniae [3]; [11]) was 2 µg/mL, the MIC (K. pneumoniae [3]; [11]) was 2 µg/mL and the MBC (K. pneumoniae [3]; [12]) was 2 µg/mL. The MIC (K. pneumoniae [3]; [12]) was 2 µg/mL, the MBC (K. pneumoniae [3]; [13]) was 2 µg/mL and the MIC (K. pneumoniae [3]; [13]) was 2 µg/mL. The MBC (K. pneumoniae [3]; [14]) was 2 µg/mL, the MIC (K. pneumoniae [3]; [14]) was 2 µg/mL and the MBC (K. pneumoniae [3]; [15]) was 1 µg/mL. For the same substance, the MIC (K. pneumoniae [3]; [15]) was 1 µg/mL, the MBC (K. pneumoniae [3]; [16]) was 1 µg/mL and the MIC (K. pneumoniae [3]; [16]) was 1 µg/mL. The MBC (K. pneumoniae [3]; [17]) was 1 µg/mL, the MIC (K. pneumoniae [3]; [17]) was 1 µg/mL and the MBC (K. pneumoniae [3]; [18]) was 2 µg/mL. The MIC (K. pneumoniae [3]; [18]) was 1 µg/mL, the MBC (K. pneumoniae [3]; [19]) was 4 µg/mL and the MIC (K. pneumoniae [3]; [19]) was 4 µg/mL. The MBC (K. pneumoniae [3]; [20]) was 2 µg/mL, the MIC (K. pneumoniae [3]; [20]) was 1 µg/mL and the MBC (K. pneumoniae [3]; [21]) was 1 µg/mL. For the same substance, the MIC (K. pneumoniae [3]; [21]) was 1 µg/mL, the MBC (K. pneumoniae [3]; [22]) was 2 µg/mL and the MIC (K. pneumoniae [3]; [22]) was 2 µg/mL. The MBC (K. pneumoniae [3]; [23]) was 1 µg/mL, the MIC (K. pneumoniae [3]; [23]) was 1 µg/mL and the MBC (K. pneumoniae [3]; [24]) was 1 µg/mL. It also gave an MIC (K. pneumoniae [3]; [24]) of 1 µg/mL, an MBC (K. pneumoniae [3]; [25]) of 4 µg/mL and an MIC (K. pneumoniae [3]; [25]) of 1 µg/mL. For the same substance, the MBC (P. aeruginosa; [26]) was 4 µg/mL, the MIC (P. aeruginosa; [26]) was 1 µg/mL and the MBC (P. aeruginosa; [27]) was 4 µg/mL. It also gave an MIC (P. aeruginosa; [27]) of 2 µg/mL, an MBC (P. aeruginosa; [28]) of 4 µg/mL and an MIC (P. aeruginosa; [28]) of 1 µg/mL. The MBC (P. aeruginosa; [29]) was 4 µg/mL, the MIC (P. aeruginosa; [29]) was 2 µg/mL and the MBC (P. aeruginosa; [30]) was 4 µg/mL. For the same substance, the MIC (P. aeruginosa; [30]) was 1 µg/mL, the MBC (P. aeruginosa; [31]) was 2 µg/mL and the MIC (P. aeruginosa; [31]) was 1 µg/mL. For the same substance, the mice survival rate [4] was “did not improve survival”, the MBC (A. baumannii; [32]) was 2 µg/mL and the MIC (A. baumannii; [32]) was 1 µg/mL. It also gave an MBC (A. baumannii; [33]) of 2 µg/mL, an MIC (A. baumannii; [33]) of 1 µg/mL and an MBC (A. baumannii; [34]) of 1 µg/mL. For the same substance, the MIC (A. baumannii; [34]) was 1 µg/mL, the MBC (A. baumannii; [35]) was 2 µg/mL and the MIC (A. baumannii; [35]) was 1 µg/mL. The MBC (A. baumannii; [36]) was 1 µg/mL, the MIC (A. baumannii; [36]) was 1 µg/mL and the MBC (A. baumannii; [37]) was 1 µg/mL. It also gave an MIC (A. baumannii; [37]) of 1 µg/mL, an MBC (A. baumannii; [38]) of 1 µg/mL and an MIC (A. baumannii; [38]) of 1 µg/mL. For the same substance, the MBC (A. baumannii; [39]) was 1 µg/mL and the MIC (A. baumannii; [39]) was 1 µg/mL.
